Series [1] in a line: Solubility of Tafamidis crystalline forms in water at different pH. The series is classed as physicochemical. The protocol: However the crystalline Forms of the present invention has water solubility greater than or equal to 3 μg/mL at pH 5 and below.
The solubility of Tafamidis crystallin Form HN3 in water at different pH is as follows: […]

The conditions of series [2]: at pH 5 and below; EMEA scientific discussion; cited from earlier work.

Converted amounts (≈) assume the structure as drawn.

Take `O=C(O)c1ccc2nc(-c3cc(Cl)cc(Cl)c3)oc2c1` [Form HN3, 2-(3,5-dichlorophenyl)-1,3-benzoxazole-6-carboxylic acid]: the solubility in series [1] (pH 3, aqueous buffer) was determined as 3 µg/mL (≈ 9.74 µM); in series [1] (pH 4, aqueous buffer), 3 µg/mL (≈ 9.74 µM); in series [1] (pH 5, aqueous buffer) it was 3 µg/mL (≈ 9.74 µM).
As for `O=C(O)c1ccc2nc(-c3cc(Cl)cc(Cl)c3)oc2c1` [Tafamidis (Form 1), 2-(3,5-dichlorophenyl)-1,3-benzoxazole-6-carboxylic acid], the water solubility in series [2] is below 2 µg/mL.

The record behind these values is patent publication US20240294479A1, “POLYMORPHS OF 2-(3,5-DICHLOROPHENYL)-L,3-BENZOXAZOLE-6-CARBOXYLIC ACID” (HONOUR LAB LIMITED, priority 2021, published 2024).
